{
  "source": "paper PMC2809102",
  "about": "“Two New Pimelic Diphenylamide HDAC Inhibitors Induce Sustained Frataxin Upregulation in Cells from Friedreich's Ataxia Patients and in a Mouse Model” (PLoS ONE, 2010)",
  "key": {"[1]": {"tested_on": "FXN gene expression", "design": "method as in PMID 16921367, PMID 18463734", "conditions": "FRDA patient cells; cited from earlier work"}, "[2]": {"tested_on": "frataxin mRNA in PBMC from FRDA patients", "assay": "FXN mRNA by quantitative real-time RT-PCR in unstimulated PBMC from FRDA patients", "assay_type": "cell-based, human", "conditions": "10 µM"}, "[3]": {"tested_on": "frataxin mRNA in KIKI splenocytes", "assay": "Fxn mRNA by qRT-PCR in unstimulated KIKI mouse splenocytes", "assay_type": "cell-based", "conditions": "10 µM, 48 hours"}, "[4]": {"tested_on": "frataxin in brain and heart of wild-type mice", "design": "method as in PMID 16921367", "conditions": "cited from earlier work"}, "[5]": {"assay": "Levels of compound in mouse brain and plasma after single injection", "assay_type": "in vivo", "conditions": "single 150 mg/Kg injection"}, "[6]": {"tested_on": "FXN mRNA in healthy volunteers PBMCs", "assay": "FXN mRNA by qRT-PCR in PBMCs from healthy volunteers", "assay_type": "cell-based, human", "conditions": "10 µM, 48 h"}, "[7]": {"tested_on": "frataxin mRNA in brain and heart of KIKI mice", "assay": "Fxn mRNA by qRT-PCR in brain and heart of KIKI mice after single subcutaneous injection", "assay_type": "in vivo, mouse"}, "[8]": {"tested_on": "histone acetylation H3K14 and H4K5 at fxn gene", "assay": "ChIP of H3K14 and H4K5 acetylation upstream of GAA repeat in KIKI mouse brain", "assay_type": "in vivo", "conditions": "KIKI mice, 50 or 150 mg/kg s.c."}},
  "data": [
    {"smiles": "Nc1ccccc1NC(=O)CCCCCCC(=O)Nc1ccccc1", "note": "[BML-210]", "values": [
      {"measurement": "effect on FXN gene expression", "setting": "[1]", "result": "relieve repression of the FXN gene"}
    ]},
    {"smiles": "O=C(CCCCCCC(=O)Nc1ccccc1)NO", "note": "[SAHA, suberoylanilide hydroxamic acid]", "values": [
      {"measurement": "effect on FXN gene expression", "setting": "[1]", "result": "inactive"}
    ]},
    {"smiles": "CC(/C=C/C(=O)NO)=C\\[C@@H](C)C(=O)c1ccc(N(C)C)cc1", "note": "[TSA, trichostatin A]", "values": [
      {"measurement": "effect on FXN gene expression", "setting": "[1]", "result": "inactive"}
    ]},
    {"smiles": "Cc1ccc(NC(=O)CCCCCC(=O)Nc2ccccc2N)cc1", "note": "[compound 106, N ^1-(2-aminophenyl)-N ^7-p-tolylheptanediamide, reference compound]", "values": [
      {"measurement": "increase of frataxin mRNA levels, average", "setting": "[2]; 48-hour incubation, average of patients, DMSO = 1", "result": 3.6, "unit": "fold"},
      {"measurement": "frataxin mRNA upregulation in mouse splenocytes", "setting": "[3]", "result": "significant"},
      {"measurement": "frataxin upregulation in brain and heart of wild-type mice", "setting": "[4]", "result": "no frataxin upregulation"}
    ]},
    {"smiles": "Cc1ccc(C(=O)NCCCCCC(=O)Nc2ccccc2N)cc1", "note": "[compound 109]", "values": [
      {"measurement": "time to total elimination from brain and plasma", "setting": "[5]", "result": "< 4", "unit": "h"}
    ]},
    {"smiles": "Cc1ccc(C(=O)NCCCCCC(=O)Nc2ccc(F)cc2N)cc1", "note": "[compound 136]", "values": [
      {"measurement": "effect on frataxin mRNA", "setting": "[2]; 48 h, compared to 10 µM compound 106", "result": "limited effect"},
      {"measurement": "FXN mRNA in healthy volunteers PBMCs", "setting": "[6]", "result": "not overall significantly affected"},
      {"measurement": "FXN mRNA trend in healthy volunteers PBMCs", "setting": "[6]; non-significant", "result": "trend toward downregulation"},
      {"measurement": "frataxin mRNA upregulation in mouse splenocytes", "setting": "[3]", "result": "significant"},
      {"measurement": "frataxin mRNA in brain", "setting": "[7]; single s.c. 150 mg/kg, 24 hours after injection", "result": "increase in frataxin mRNA in the brain to wild-type levels"},
      {"measurement": "Fxn mRNA in heart", "setting": "[7]; single s.c. dose, only at 50 or 150 mg/kg (not 5, 15), p = 0.009 and 0.008", "result": "significantly increased"},
      {"measurement": "Fxn mRNA in brain", "setting": "[7]; single s.c. dose, only at 50 or 150 mg/kg (not 5, 15), p<0.001", "result": "significantly increased"},
      {"measurement": "histone acetylation H3K14 and H4K5 upstream of GAA repeat, brain", "setting": "[8]", "result": "increase in histone acetylation"}
    ]}
  ]
}
